Laboratory results from US8063088B2 (Hoffmann-La Roche Inc., priority 2008, dated 2011).

How the values were obtained:
human LXR alpha = biological target: T1, human LXR alpha (Homo sapiens, UniProt Q13133); test: Radioligand binding assay (SPA), LXR alpha LBD; details: radioligand displacement, LXRα-LBD on SPA beads; read-out: LXRalpha Binding IC50
T1 construct: human LXR alpha (aa 164 to 447); unspecified tag ('tagged versions'); made in house; host or cells: E. coli BL21 (pLysS)
T1 sequence (Q13133 164-447): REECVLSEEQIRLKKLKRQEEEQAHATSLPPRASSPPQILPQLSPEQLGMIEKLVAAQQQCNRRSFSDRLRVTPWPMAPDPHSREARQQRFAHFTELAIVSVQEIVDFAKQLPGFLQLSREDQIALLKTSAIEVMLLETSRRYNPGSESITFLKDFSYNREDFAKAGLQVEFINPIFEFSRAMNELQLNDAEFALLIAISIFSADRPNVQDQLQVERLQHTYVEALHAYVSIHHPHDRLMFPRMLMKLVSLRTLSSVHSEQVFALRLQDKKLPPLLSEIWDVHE
Description: (§1) The following tests were carried out in order to determine the activity of the compounds of the present invention. Background information on the performed assays can be found in: Nichols J S et al. “Development of a scintillation proximity assay for peroxisome proliferator-activated receptor gamma ligand binding domain”, Anal Biochem. 1998, 257: 112-119.
(§2) Mammalian expression vectors were constructed to express full-length human LXR alpha and LXR beta. Bacterial expression vectors were constructed to produce tagged versions of the ligand binding domains (LBD) of human LXR alpha (aa 164 to 447) and human LXR beta (aa 155 to 460). To accomplish this, the portions of the sequences encoding the LBDs were amplified from the full-length clones by PCR and then subcloned into the plasmid vectors. Final clones were verified by DNA sequence analysis (Willy et al., Genes Dev. 1995, 9:1033-45; Song et al., Proc Natl Acad Sci USA. 1994, 91:10809-13).
(§3) Induction, expression, and purification of LBD proteins were performed in E. coli strain BL21 (pLysS) cells by standard methods (Ref: Current Protocols in Molecular Biology, Wiley Press, edited by Ausubel et al).
(§4) Radioligand Binding Assay
(§5) LXR alpha and LXR beta receptor binding were assayed in buffer consisting of 50 mM HEPES, pH 7.4, 10 mM NaCl, 5 mM MgCl2. For each 96-well reaction, 500 ng of LXRα-LBD or 700 ng of LXR beta-LBD proteins were bound to 80 μg or 40 μg SPA beads respectively, in a final volume of 50 μl by shaking. The resulting slurry was incubated for 1 h at RT and centrifuged for 2 min at 1300×g. The supernatant containing unbound protein was removed, and the semi-dry pellet containing the receptor-coated beads was re-suspended in 50 μl of buffer. Radioligand (eg. 100,000 dpm of (N-(2,2,2-trifluoroethyl)-N-[4-(2,2,2-trifluoro-1-hydroxy-1-trifluoromethylethyl)-phenyl]-benzenesulfonamide)) was added, and the reaction incubated at RT for 1 h in the presence of test compounds, and then scintillation proximity counting was performed. All binding assays were performed in 96-well plates and the amount of bound ligand was measured on a Packard TopCount using OptiPlates (Packard). Dose response curves were measured within a range of concentration from 10^−10 M to 10^−4 M.

human LXR beta = biological target: T2, human LXR beta (Homo sapiens, UniProt P55055); test: Radioligand binding assay (SPA), LXR beta LBD; details: radioligand displacement, LXR beta-LBD on SPA beads; read-out: LXRbeta Binding IC50
T2 construct: human LXR beta (aa 155 to 460); unspecified tag ('tagged versions'); made in house; host or cells: E. coli BL21 (pLysS)
T2 sequence (P55055 155-460): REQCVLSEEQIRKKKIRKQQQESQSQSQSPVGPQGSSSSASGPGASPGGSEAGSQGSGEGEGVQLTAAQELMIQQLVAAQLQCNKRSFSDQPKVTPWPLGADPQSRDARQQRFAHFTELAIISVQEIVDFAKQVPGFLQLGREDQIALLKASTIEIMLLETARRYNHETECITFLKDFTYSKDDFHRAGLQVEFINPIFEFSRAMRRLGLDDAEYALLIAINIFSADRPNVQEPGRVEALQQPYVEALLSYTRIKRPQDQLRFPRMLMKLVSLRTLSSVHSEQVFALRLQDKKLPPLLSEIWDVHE
Description: as §1, §2, §3, §4, §5

Row | IC50 (human LXR alpha) [nM] | IC50 (human LXR beta) [nM] | SMILES
1 | 185 | 220 | Cc1ccc(C)c(-c2cccc([C@H]3CN(C(=O)OC(C)(C)C)C(=O)C[C@H]3c3ccccc3)c2)c1 (relative stereo) [Example 47, Cis-5-(2′,5′-Dimethyl-biphenyl-3-yl)-2-oxo-4-phenyl-piperidine-1-carboxylic acid tert-butyl ester]
2 | 2250 | 410 | CC(C)N1C(=O)N(S(=O)(=O)c2ccccc2)CC1c1cccc(-c2cccc(S(=O)(=O)NC(C)(C)C)c2)c1 (stereo not drawn) [Example 29, 3′-(1-Benzenesulfonyl-3-isopropyl-2-oxo-imidazolidin-4-yl)-biphenyl-3-sulfonic acid tert-butylamide]
3 | 2830 | 610 | CC(C)(C)OC(=O)N1CC[C@H](c2ccccc2)[C@H](c2cccc(-c3cccc(S(C)(=O)=O)c3)c2)C1 (relative stereo) [Example 42, cis-3-(3′-Methanesulfonyl-biphenyl-3-yl)-4-phenyl-piperidine-1-carboxylic acid tert-butyl ester]
4 | 8880 | 3750 | Cc1ccccc1N1CCN(C(=O)OC(C)(C)C)CC1c1cccc(-c2cncc(S(C)(=O)=O)c2)c1 (stereo not drawn) [Example 49, 3-[3-(5-Methanesulfonyl-pyridin-3-yl)-phenyl]-4-o-tolyl-piperazine-1-carboxylic acid tert-butyl ester]
5 | 95 | 10.4 | CCOc1ccc(F)c(-c2cccc(C3CN(S(=O)(=O)c4ccccc4)C(=O)N3C(C)C)c2)c1 (stereo not drawn) [Example 30, 1-Benzenesulfonyl-4-(5′-ethoxy-2′-fluoro-biphenyl-3-yl)-3-isopropyl-imidazolidin-2-one]
6 | 240 | 21 | CC(C)(C)OC(=O)N1C[C@H](c2cccc(-c3cccc(S(C)(=O)=O)c3)c2)[C@H](c2ccccc2)CC1=O (relative stereo) [Example 45, Cis-5-(3′-Methanesulfonyl-biphenyl-3-yl)-2-oxo-4-phenyl-piperidine-1-carboxylic acid tert-butyl ester]
7 | 2960 | 505 | CC(C)N1C(=O)N(S(=O)(=O)c2ccccc2)CC1c1cccc(-c2cc(C#N)ccc2Cl)c1 (stereo not drawn) [Example 28, 3′-(1-Benzenesulfonyl-3-isopropyl-2-oxo-imidazolidin-4-yl)-6-chloro-biphenyl-3-carbonitrile]
8 | 3030 | 2750 | CS(=O)(=O)c1cccc(-c2cccc([C@@H]3CN(S(=O)(=O)c4ccccc4)CC[C@@H]3c3ccccc3)c2)c1 (relative stereo) [Example 39, cis-1-Benzenesulfonyl-3-(3′-methanesulfonyl-biphenyl-3-yl)-4-phenyl-piperidine]
9 | 27400 | 36800 | Cc1ccc(C)c(-c2cccc([C@@H]3CN(C(=O)OC(C)(C)C)CC[C@@H]3c3ccccc3)c2)c1 (relative stereo) [Example 41, cis-3-(2′,5′-Dimethyl-biphenyl-3-yl)-4-phenyl-piperidine-1-carboxylic acid tert-butyl ester]
10 | 6230 | 3800 | COc1ccc(F)cc1-c1cccc(C2CN(S(=O)(=O)c3ccccc3)C(=O)N2C(C)C)c1 (stereo not drawn) [Example 27, 1-Benzenesulfonyl-4-(5′-fluoro-2′-methoxy-biphenyl-3-yl)-3-isopropyl-imidazolidin-2-one]
11 | 2620 | 425 | NCc1cccc(-c2cccc(C3CN(S(=O)(=O)c4ccccc4)CCN3c3ccccc3)c2)c1 (stereo not drawn) [Example 35, C-[3′-(4-Benzenesulfonyl-1-phenyl-piperazin-2-yl)-biphenyl-3-yl]-methylamine]

Further lines, the compound ahead of its results:

Row | SMILES | IC50 (human LXR alpha) [nM] | IC50 (human LXR beta) [nM]
12 | CC(C)N1C(=O)N(S(=O)(=O)c2ccccc2)CC1c1cccc(-c2cncc(S(C)(=O)=O)c2)c1 (stereo not drawn) [Example 23, 1-Benzenesulfonyl-3-isopropyl-4-[3-(5-methanesulfonyl-pyridin-3-yl)-phenyl]-imidazolidin-2-one] | 2790 | 25
13 | CS(=O)(=O)c1cccc(-c2ccc(C3CN(S(=O)(=O)c4ccccc4)C(=O)N3c3ccccc3)cc2)c1 (stereo not drawn) [Example 4, 1-Benzenesulfonyl-4-(3′-methanesulfonyl-biphenyl-4-yl)-3-phenyl-imidazolidin-2-one] | 1680 | 280
14 | O=C(O)c1ccc(-c2cccc(C3CN(S(=O)(=O)c4ccccc4)C(=O)N3c3ccccc3)c2)cc1 (stereo not drawn) [Example 5, 3′-(1-Benzenesulfonyl-2-oxo-3-phenyl-imidazolidin-4-yl)-biphenyl-4-carboxylic acid] | 4140 | 5420
15 | CC(C)N1C(=O)N(S(C)(=O)=O)CC1c1cccc(-c2cccc(S(C)(=O)=O)c2)c1 (stereo not drawn) [Example 17, 3-Isopropyl-1-methanesulfonyl-4-(3′-methanesulfonyl-biphenyl-3-yl)-imidazolidin-2-one] | 52800 | 2730
16 | NCc1cccc(-c2cccc([C@@H]3CN(S(=O)(=O)c4ccccc4)CC[C@H]3c3ccccc3)c2)c1 (relative stereo) [Example 37] | 2540 | 2090
17 | O=C(O)c1ccccc1-c1cccc(C2CN(S(=O)(=O)c3ccccc3)C(=O)N2c2ccccc2)c1 (stereo not drawn) [Example 11, 3′-(1-Benzenesulfonyl-2-oxo-3-phenyl-imidazolidin-4-yl)-biphenyl-2-carboxylic acid] | 13000 | 46100
18 | CS(=O)(=O)Nc1cccc(-c2ccc(C3CN(S(=O)(=O)c4ccccc4)C(=O)N3c3ccccc3)cc2)c1 (stereo not drawn) [Example 9, N-[4′-(1-Benzenesulfonyl-2-oxo-3-phenyl-imidazolidin-4-yl)-biphenyl-3-yl]-methanesulfonamide] | 425 | 360
19 | CC(C)N1C(=O)N(S(=O)(=O)c2ccccc2)CC1c1cccc(-c2cccc(S(C)(=O)=O)c2)c1 (stereo not drawn) [Example 12, 1-Benzenesulfonyl-3-isopropyl-4-(3′-methanesulfonyl-biphenyl-3-yl)-imidazolidin-2-one] | 147 | 24.3
20 | CC(C)N1C(=O)N(S(=O)(=O)c2ccccc2F)CC1c1cccc(-c2cccc(S(C)(=O)=O)c2)c1 (stereo not drawn) [Example 14, 1-(2-Fluoro-benzenesulfonyl)-3-isopropyl-4-(3′-methanesulfonyl-biphenyl-3-yl)-imidazolidin-2-one] | 10 | 6
21 | CC(C)N1C(=O)N(S(=O)(=O)c2ccccc2)CC1c1cccc(-c2cccc(S(N)(=O)=O)c2)c1 (stereo not drawn) [Example 24, 3′-(1-Benzenesulfonyl-3-isopropyl-2-oxo-imidazolidin-4-yl)-biphenyl-3-sulfonic acid amide] | 48 | 1
22 | CS(=O)(=O)c1cc(-c2cccc(C3CN(S(=O)(=O)c4ccccc4)C(=O)N3c3ccccc3)c2)ccc1CO (stereo not drawn) [Example 16, 1-Benzenesulfonyl-4-(4′-hydroxymethyl-3′-methanesulfonyl-biphenyl-3-yl)-3-phenyl-imidazolidin-2-one] | 475 | 29
23 | O=C(O)CCc1ccc(-c2cccc(C3CN(S(=O)(=O)c4ccccc4)C(=O)N3c3ccccc3)c2)cc1 (stereo not drawn) [Example 10, 3-[3′-(1-Benzenesulfonyl-2-oxo-3-phenyl-imidazolidin-4-yl)-biphenyl-4-yl]-propionic acid] | 3350 | 2690
24 | O=C(O)c1ccc(-c2ccc(C3CN(S(=O)(=O)c4ccccc4)C(=O)N3c3ccccc3)cc2)cc1 (stereo not drawn) [Example 1, 4′-(1-Benzenesulfonyl-2-oxo-3-phenyl-imidazolidin-4-yl)-biphenyl-4-carboxylic acid] | 11600 | 2880
